Assay results from publication PMC6630718, “Discovery of Novel UV-Filters with Favorable Safety Profiles in the 5-Arylideneimidazolidine-2,4-dione Derivatives Group” (Molecules, 2019).

What was measured:
[1] = system: estrogen-dependent MCF-7 breast cancer cell line; assay: Estrogenic activity: MCF-7 proliferation, crystal violet assay; type: cell-based, human; conditions: 5 μM, 120 h, estrogen- and phenol red-free medium
Description: To determine estrogenic activity of tested compounds their influence on estrogen-dependent MCF-7 breast cancer cell line proliferation was investigated. Cells were seeded into 24-wells plates in density of 40,000 per well. After 24 h incubation, cells were washed twice with PBS and fresh, estrogen- and phenol red-free medium (DMEM low-glucose; 2,5% Charcoal Stripped FBS; 2 mM glutamine; Sigma Aldrich, Darmstadt, Germany) was added. […] After 120 h incubations, cells proliferation was determined with crystal violet assay. Briefly, cells were washed with PBS and fixed with 3,7% formaldehyde. Then, crystal violet solution was added for 10 minutes. After incubation, solution was removed and cells were washed five times with PBS. Crystal violate was extracted from cells using destaining solution (1,33% citric acid, 1,09% sodium citrate in water/methanol (1:1) solution) and absorbance of the solution was determined at 570 nm (A570). Proliferation rate was determined by dividing the A570 of experimental wells by the A570 of control wells × 100%.

[2] = In vitro stability in mouse liver microsomes; type: in vitro ADME
Procedure, shortened: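 Compound (20 µM) with mouse liver microsomes (0.8 mg/mL), potassium phosphate pH 7.4, NADPH-regenerating system, 37 °C for 15–60 min; parent remaining by UPLC/MS, two repeats. t1/2 from ln % remaining versus time; Clint = (incubation volume/protein) × 0.693/t1/2.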

- t ½ ([2]; mouse liver microsomes 0.8 mg/mL, 20 µM compound, NADPH-regenerating system, 37 °C): 1.1 h
- Clint ([2]; mouse liver microsomes, calculated from t1/2): 13 µL/min/mg
SMILES: O=C(c1ccc(O)cc1O)c1ccc(O)cc1O [BP-2, benzophenone-2, reference compound]
- stimulation of MCF-7 proliferation [1]: over 60%
